Measured values reported in patent US20140073607A1, “COMPOUNDS FOR USE IN THE TREATMENT OF FELINE RETROVIRAL INFECTIONS” (OKAPI SCIENCES NV, priority 2011, published 2014).
In brackets after ≈: the same amount, converted by molar mass.

Assays:
FIV [1] = settings: FIV-infected cats, Hartmann et al. 1998; cited from earlier work
FeLV [2] = test: Inhibition of FeLV replication in CrFK cells co-infected with FeLV and FIV (p27 ELISA and RT-qPCR); assay type: cell-based; settings: CrFK cells co-infected with FeLV and FIV-Ut113, six days; mean ± SD of three independent assays
Protocol: (§1) The compounds were dissolved in a 0.05 N sodium hydroxide solution at a concentration of 10 mg/ml. Reference compounds PMEDAP and PMEA were dissolved in a sodium bicarbonate buffer at a concentration of 10 mg/ml.
(§2) Crandell Reese Feline kidney (CrFK) cells were grown in Dulbecco minimum essential medium (DMEM, Life Technologies) containing 1% sodium bicarbonate (Life Technologies) and 5% fetal calf serum (FCS, Biochrom). In a 96-well plate 5000 CrFK cells were seeded and incubated for 24 h at 37° C. in a humid atmosphere containing 5% CO2. Subsequently cells were washed with 100 μl phosphate buffered saline (PBS) containing 50 μg/ml DEAE-dextran and co-infected with 100 CCID50 FeLV and 100 CCID50 FIV-Ut113 in presence of increasing doses of the compounds (0.4; 2; 10 and 50 μg/ml). After 2 h of incubation allowing the virus to enter the cells, the supernatant was removed and the cells were washed with PBS. […] The cells were incubated for six days when viral supernatant was collected and analyzed by ELISA for FeLV p27 and FIV p24 antigen production and real time RT-qPCR for FeLV and FIV RNA production. […] Subsequently the amount of FIV p24 was detected by a monoclonal biotinylated antibody 5E6D11 followed by a colorimetric reaction which is based on extravidin peroxidase (Sigma) and OPD substrate (Sigma).

FeLV [3] = test: Treatment of cats naturally infected with FeLV; assay type: in vivo, cat
FeLV [4] = test: Inhibition of FeLV replication in CrFK cell culture (p27 ELISA and RT-qPCR); assay type: cell-based; settings: CrFK cells, 100 CCID50 FeLV, six days, mean ± SD of three independent assays
Protocol: The compounds were dissolved in a 0.05 N sodium hydroxide solution at a concentration of 10 mg/ml. Crandell Reese Feline kidney (CrFK) cells were grown in Dulbecco minimum essential medium (DMEM, Life Technologies) containing 1% sodium bicarbonate (Life Technologies) and 5% fetal calf serum (FCS, Biochrom). In a 96-well plate 5000 CrFK cells were seeded and incubated for 24 h at 37° C. in a humid atmosphere containing 5% CO2. Subsequently cells were washed with 100 μl phosphate buffered saline (PBS) containing 50 μg/ml DEAE-dextran and inoculated with 100 CCID50 FeLV in presence of increasing doses of the compounds (0.4; 2; 10 and 50 μg/ml). After 2 h of incubation allowing the virus to enter the cells, the supernatant was removed and the cells were washed with PBS. DMEM including 5% FCS and containing increasing doses of the compounds were added to the infected cells. Infected cells without compounds were included as positive controls (virus control) and uninfected cells were included as negative controls (cell control). The cells were incubated for six days when viral supernatant was collected and analyzed by enzyme-linked immunosorbent assay (ELISA) for FeLV p27 antigen production and real time RT-qPCR for FeLV RNA production. […]

FIV-Ut113 = test: Inhibition of FIV replication in CrFK cells co-infected with FeLV and FIV (p24 ELISA and RT-qPCR); assay type: cell-based; settings: CrFK cells co-infected with FeLV and FIV-Ut113, six days; mean ± SD of three independent assays
Protocol: as §1, §2

FIV [5] = test: Treatment of clinically ill cats naturally infected with FIV; assay type: in vivo, cat
Protocol: The compounds were dissolved to a concentration ranging between 50 and 250 mg/mL in an appropriate aqueous buffered sodium hydroxide solution close to neutral pH conditions (pH between 6 and 9).
The formulated compounds were administered via the subcutaneous route at least once weekly at total dose rates ranging between 10 and 175 mg/kg per week. Treatment duration was between 1 week and 3 months.
The results of the treatment of cats with specific symptoms are discussed below. • Cats with oral signs. • Oral signs can present themselves as, but are not limited to, stomatitis, gingivitis, faucitis, glossitis, periodontitis, gingivostomatitis, ulcerations of the tonsils and tongue, salivation etc. […] Spontaneous bleeding was no longer observed and the bloody red inflammation diminished to a slightly pinkish observation. No other treatment was given concomitantly. • Cats with high viral load • FIV, as a retrovirus, reverse transcribes its viral RNA genome into proviral DNA which is subsequently inserted into the genome of its host. […] Reduction of viral load is important in controlling FIV infection in the cat. […] The graphs in FIGS. 1A, B and C represent the viral load pre and post treatment with the compounds in three different cats. No other treatment was given concomitantly. • Lethargic and emaciated cat, with severe weight loss • The FIV-positive cat was presented to the veterinarian with the following clinical signs: lethargy, emaciation, difficulty to walk, unable to jump up/off a chair, no desire to go outdoors, prolonged sleeping patterns. Prognosis was to euthanize the cat. • Treatment with the compounds was initiated and within a matter of weeks, the cat returned to normal, gained weight (0.6 kg), walked and played around, stayed outdoors for several consecutive days. […] No other treatment was given concomitantly. • Cat with lymphadenopathy (swollen/enlarged lymph nodes) • A male FIV-positive cat with swollen Lnn. poplitei (score 4; severity is scored on a scale from 0 to 10 with 0 representing a normal clinical picture and 10 being the most severe manifestation) was treated with the compounds. Within two weeks the swelling went down to a score of 2. At the end of the 6-week treatment period with the compounds a score of 1 was noted; 0 representing a normal clinical picture. […] Before treatment the Lnn. poplitei were swollen (score 2). Two weeks into treatment the lymphnodes returned to normal (score 0) which was maintained throughout the 6-week treatment period with the compounds. • Similar observations were made for two FIV-positive cats. When treatment was initiated the Lnn. mandibulares were swollen (score 2 and 3, respectively). The returned to normal (score 0) by the end of the 6-week treatment with the compounds. • Cat with inflammation of the eye • A female FIV-positive cat suffered from chronic inflammation of the eye before treatment with the compounds was initiated despite concurrent antibacterial treatment. […] No other treatment was given concomitantly. One week following treatment the cat was able to sit up straight and eat on its own. Treatment was continued for another four weeks after which the cat was able to walk, climb up and down stairs, and eat on its own. […] The Karnofsky's score has proven its validity in cats to assess and compare the efficacy of antiviral compounds (Hartmann et al., J Acquir Immune Defic Syndr Hum Retrovirol 1998). Table 4 summarizes the Karnofsky's score of two FIV-positive cats before, during and post treatment with the compounds. No other treatment was given concomitantly.

FIV and FeLV = test: Treatment of cats naturally co-infected with FIV and FeLV; assay type: in vivo; settings: cat co-infected with FIV and FeLV, pre versus post treatment (FIG. 2); no other treatment
Protocol: The compounds were dissolved in an appropriate aqueous buffered sodium hydroxide solution (at concentration ranging between 50 and 250 mg/ml and close to neutral pH conditions (pH between 6 and 9). The formulated compounds were administered via the subcutaneous route at least once weekly at total dose rates ranging between 10 and 175 mg/kg per week. Treatment duration was between 1 week and 3 months.
FIV and FeLV, as retroviruses, reverse transcribe their viral RNA genome into proviral DNA which is subsequently inserted into the genome of its host. […] Reduction of viral load is important in controlling FIV/FeLV infection in the cat. […] The graph in FIG. 2 represents the viral load pre and post treatment with the compounds in a cat co-infected with FIV and FeLV. No other treatment was given concomitantly.

[6] = FIV-positive cat A, 50% before treatment
[7] = FIV-positive cat B, 30.5% before treatment

Nc1ncnc2c1ncn2CCOCP(=O)(O)O [PMEA, 9-(2-phosphonylmethoxyethyl)adenine, reference compound]
Effect on FIV load (FIV [1]): did not decrease the FIV load
Improvement in Karnofsky's score (FIV [1]): 10%

Nc1ncnc2c1ncn2C[C@@H](CF)OCP(=O)(O)O [FPMPA, (S)-9-(3-fluoro-2-phosphonylmethoxypropyl)adenine]
Effect on FIV load (FIV [1]): reduced the FIV load
Improvement in Karnofsky's score (FIV [1]): 3.8%

CC(Cn1cnc2c(N)nc(N)nc21)OCP(=O)(O)O (centres unmarked) [R-PMPDAP, 9-(2-phosphonylmethoxypropyl)-2,6-diaminopurine]
EC50 FeLV ELISA (p27) (FeLV [2]): 0.062 ± 0.010 µg/mL (≈ 0.205 µM)
EC50 FeLV RT-qPCR (FeLV [2]): 0.095 ± 0.050 µg/mL (≈ 0.314 µM)
FeLV viral load after treatment (FeLV [3]; female FeLV-positive viremic cat, RT-qPCR, decreased from 15500): 3200 FeLV virions per mL plasma
Karnofsky's score at the end of the 3-week treatment period (FeLV [3]; male FeLV-positive cat with clinical signs, 58.5% before treatment): 80%
FeLV associated clinical signs following treatment (FeLV [3]; male FeLV-positive cat with oral inflammation, lymphadenopathy, diarrhea): the clinical signs ameliorated
EC50 of FeLV replication, RT-qPCR (FeLV [4]; FeLV RNA in supernatant): 0.039 ± 0.024 µg/mL
EC50 of FeLV replication, p27 ELISA (FeLV [4]; p27 antigen in supernatant): 0.030 ± 0.006 µg/mL
EC50 FIV ELISA (p24) (FIV-Ut113): 0.332 ± 0.035 µg/mL (≈ 1.1 µM)
EC50 FIV RT-qPCR (FIV-Ut113): 0.258 ± 0.024 µg/mL (≈ 0.854 µM)
Karnofsky's score, 1 month post cessation of treatment (FIV [5]; [6]): 90%
Karnofsky's score, during treatment (FIV [5]; [6]): 70%
Karnofsky's score, end of treatment (FIV [5]; [6]): 90%
Karnofsky's score, 1 month post cessation of treatment (FIV [5]; [7]): 35%
Karnofsky's score, during treatment (FIV [5]; [7]): 50%
Karnofsky's score, end of treatment (FIV [5]; [7]): 50%
Stomatitis upon treatment (FIV [5]; FIV-positive cat with severe caudal stomatitis and buccostomatitis, subcutaneous, 10-175 mg/kg per week, no other treatment): the stomatitis decreased significantly
Gingivitis upon treatment (FIV [5]; FIV-positive cat with severe gingivitis with spontaneous bleeding, subcutaneous, no other treatment): the gingivitis decreased significantly
Viral load (FIV virions per mL plasma) (FIV [5]; FIV-positive cats, pre versus post treatment, three cats (FIG. 1A, B, C)): significantly reduce the viral load
Chronic inflammation of the eye following treatment (FIV [5]; female FIV-positive cat, concurrent antibacterial treatment): on its way to full recovery
Swelling score of Lnn. poplitei (FIV [5]; female FIV-positive cat, score 2 before treatment, scale 0 to 10, two weeks into treatment, maintained throughout 6 weeks): 0
Weight gained (FIV [5]; lethargic, emaciated FIV-positive cat with severe weight loss, within a matter of weeks): 0.6 kg
General condition (FIV [5]; lethargic, emaciated FIV-positive cat, prognosis was to euthanize, within a matter of weeks): general condition returned to normal
Swelling score of Lnn. poplitei (FIV [5]; male FIV-positive cat, score 4 before treatment, scale 0 to 10, end of the 6-week treatment period): 1
Swelling score of Lnn. poplitei (FIV [5]; male FIV-positive cat, score 4 before treatment, scale 0 to 10, within two weeks): 2
Neurological symptoms (acute paresis of left front and hind legs) (FIV [5]; male FIV-positive cat, shortly after five weeks of treatment, no other treatment): A full recovery was observed
Feces (chronic daily diarrhea) (FIV [5]; male FIV-positive cat, within two weeks): returned to normal within two weeks
Swelling score of Lnn. mandibulares (FIV [5]; two FIV-positive cats, score 2 and 3 at start, scale 0 to 10, end of the 6-week treatment): 0
Viral load (FIV/FeLV virions per mL plasma) (FIV and FeLV): significantly reduce the viral load
